Key:
XP30RO cells (XP-V) = experiment: Cell survival assay, crystal violet, with or without UV
Description: Cell survival assays were carried out using crystal violet assays and CellTiter-Glo Luminescent Cell Viability Assays. In crystal violet assays, XP30RO cells were plated into clear 96-well plates at a density of 8000 cells/mL and incubated overnight at 37°C, 5% CO2. The cells were treated with (1) inhibitor alone for 6 h or (2) UV alone or (3) inhibitor alone for 6 h followed by UV irradiation. After 2 days, cells were fixed with 4% paraformaldehyde and stained with 0.5% crystal violet dye. The dye was dissolved in 10% acetic acid and absorbance measurement was taken at OD595 nm with Infinite® M200 plate reader (Tecan, Durham, NC). For the CellTiter-Glo Luminescent Cell Viability Assays, the same procedures as crystal violet assays were used except that white/clear bottom 96-well plates were used and cell viability was measured following manufacturer's recommendations.
XP30RO cells were treated with 24 µM of candesartan cilexetil alone, UV alone at 1.5 J/m^2, 4.5 J/m^2, or 7.5 J/m^2, or in combination. Percent survival was calculated by normalizing the data using the cell survival of untreated cells. The data were obtained from three independent experiments.

[1] = test system: double-stranded DNA ladder; experiment: DNA intercalation assay (agarose gel shift of DNA ladder); format: binding; settings: 0.75 or 3 nmol compound with 1.5 nmol DNA, 1% agarose gel
Description: Candesartan cilexetil or ethidium bromide was incubated with 1.5 nmol of double-stranded DNA ladder for 15 min at room temperature in the buffer containing 50 mM Tris-HCl, pH 8.0, 0.01% Tween-20, 1 mM DTT, and 40 mM NaCl. The reaction mixtures were run on 1% agarose gel and stained with ethidium bromide (0.5 µg/ml) for visualization.
Figure 7 The non-DNA-intercalating property of candesartan cilexetil. Candesartan cilexetil or ethidium bromide was incubated with double-stranded DNA ladder, and the reaction products were run on 1% agarose gel and stained with ethidium bromide. Lane 1: No compound. Lane 2: 0.75 nmol of candesartan cilexetil was incubated with 1.5 nmol DNA. Lane 3: 3 nmol of candesartan cilexetil was incubated with 1.5 nmol DNA. Lane 4: 0.75 nmol of ethidium bromide was incubated with 1.5 nmol DNA. Lane 5: 3 nmol of ethidium bromide was incubated with 1.5 nmol DNA.

Human pol κ = target: T1, Human pol κ (Homo sapiens, UniProt Q9UBT6); experiment: Radioactive gel-based primer extension assay on non-damaged DNA, pol κ; format: biochemical; settings: primer extension, non-damaged DNA, 0.25 nM pol κ; average ± standard error, three experiments; read-out: gel: non-damaged: IC50
T1 construct: Human pol κ (residues 19–526) was purified as previously reported; made in house
T1 sequence (Q9UBT6 19-526): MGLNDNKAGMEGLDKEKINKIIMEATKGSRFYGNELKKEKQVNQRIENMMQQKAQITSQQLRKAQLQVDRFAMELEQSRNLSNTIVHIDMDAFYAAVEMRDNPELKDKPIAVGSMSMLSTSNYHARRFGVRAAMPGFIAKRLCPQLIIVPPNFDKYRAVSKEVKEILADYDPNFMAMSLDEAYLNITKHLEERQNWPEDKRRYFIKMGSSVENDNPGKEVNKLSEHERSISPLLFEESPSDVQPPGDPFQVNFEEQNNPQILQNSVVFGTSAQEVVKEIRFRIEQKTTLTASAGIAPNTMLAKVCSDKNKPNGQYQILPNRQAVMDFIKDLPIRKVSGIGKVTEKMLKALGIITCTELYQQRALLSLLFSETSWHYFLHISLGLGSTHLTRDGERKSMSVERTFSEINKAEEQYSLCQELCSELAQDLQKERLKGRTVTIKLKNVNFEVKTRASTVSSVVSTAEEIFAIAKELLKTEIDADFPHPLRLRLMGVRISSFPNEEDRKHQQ
Description: (§1) The reactions with pol κ, pol η, and pol ι were carried out in the buffers containing 25 mM Tris-HCl, pH 7.5, 8 mM MgCl2, 10% glycerol, 100 µg/mL bovine serum albumin, and 5 mM DTT. Buffers for pol δ reactions contained 40 mM Hepes-KOH, pH 6.8, 10% glycerol, 200 µg/mL bovine serum albumin, 1 mM DTT, and 8 mM MgCl2. Final concentration of pol κ, pol η, pol ι, or pol δ in the reaction was 0.25 nM, 1 nM, 2.5 nM, or 4 nM, respectively. In this assay, a polymerase was preincubated with the compound for 15 min at room temperature. Primer extensions were then initiated by the addition of DNA substrate at final concentration of 5 nM and carried out for 30 min at room temperature in the presence of 100 µM dCTP and dGTP. The reactions were terminated by the addition of an equal volume of a dye solution containing 95% (v/v) formamide, 10 mM EDTA, 0.03% (w/v) xylene cyanol, and 0.03% (w/v) bromphenol blue. Reaction products were separated through a 15% acrylamide gel containing 8 M urea and visualized with a PhosphorImager screen. The ratio of extended primer to the total amount of primer was measured using ImageQuant 5.2 software to calculate the percentage of primer extended. IC50 values were determined by fitting the data to variable slope four-parameter equations using GraphPad Prism 5.

Human pol ι = target: T2, Human pol ι (Homo sapiens, UniProt Q9UNA4); experiment: Radioactive gel-based primer extension assay on non-damaged DNA, pol ι; format: biochemical; settings: average ± standard error, three experiments
T2 construct: purchased Enzymax Inc. (Lexington, KY)
T2 sequence (Q9UNA4 1-740): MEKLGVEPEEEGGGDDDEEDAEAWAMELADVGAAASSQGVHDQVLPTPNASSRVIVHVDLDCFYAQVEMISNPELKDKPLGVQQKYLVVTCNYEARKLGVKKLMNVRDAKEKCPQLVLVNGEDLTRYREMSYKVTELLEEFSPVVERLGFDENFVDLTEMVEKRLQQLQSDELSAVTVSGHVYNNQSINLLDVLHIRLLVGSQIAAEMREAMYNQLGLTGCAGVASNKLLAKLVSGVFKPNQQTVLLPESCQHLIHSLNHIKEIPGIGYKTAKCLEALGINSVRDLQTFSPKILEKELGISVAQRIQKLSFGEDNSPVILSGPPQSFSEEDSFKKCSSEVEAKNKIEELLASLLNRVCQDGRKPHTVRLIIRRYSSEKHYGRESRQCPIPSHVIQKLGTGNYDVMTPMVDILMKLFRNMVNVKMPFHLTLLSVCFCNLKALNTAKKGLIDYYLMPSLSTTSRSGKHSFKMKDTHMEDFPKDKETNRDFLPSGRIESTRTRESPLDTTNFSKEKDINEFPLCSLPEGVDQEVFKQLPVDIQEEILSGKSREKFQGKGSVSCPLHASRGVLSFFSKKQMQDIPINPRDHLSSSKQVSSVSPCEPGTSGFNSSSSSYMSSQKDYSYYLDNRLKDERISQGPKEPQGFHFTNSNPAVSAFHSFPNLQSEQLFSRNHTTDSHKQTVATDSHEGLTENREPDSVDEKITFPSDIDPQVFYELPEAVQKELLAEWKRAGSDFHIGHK
Description: as §1

## CCOc1nc2cccc(C(=O)OC(C)OC(=O)OC3CCCCC3)c2n1Cc1ccc(-c2ccccc2-c2nnn[nH]2)cc1 (centres unmarked) [candesartan cilexetil, Candesartan cilexetil]
XP30RO cells (XP-V); 24 µM, no UV
  Cell survival with compound alone: cell survival was not altered
XP30RO cells (XP-V); crystal violet, inhibitor 6 h then UV 1.5, 4.5 or 7.5 J/m^2, candesartan cilexetil 24 µM
  Effect on UV-induced cytotoxicity: potentiated the cytotoxicity of UV at higher UV doses
[1]
  DNA migration pattern (intercalation): no difference in DNA migration pattern
Human pol κ
  IC50: 9.2 ± 0.5 µM
Human pol ι
  IC50: 6.2 ± 0.6 µM

Reference: paper PMC3466269, “A Comprehensive Strategy to Discover Inhibitors of the Translesion Synthesis DNA Polymerase κ” (PLoS ONE, 2012)
